In publication PMC6897945, “CytA, a reductase in the cytorhodin biosynthesis pathway, inactivates anthracycline drugs in Streptomyces” (Communications Biology, 2019):
≈ marks a conversion by molar mass, not a printed value. Like-named read-outs stand apart in the source and are kept apart here.

Tests used:
[1] = system: Staphylococcus aureus 745524; test: Antibacterial activity, broth dilution MIC; assay type: cell-based
Protocol: (§1) The antibacterial activities of compounds 1–13 were assessed using twofold serial dilutions of antibacterial agents in MH broth, according to previously reported standard methods provided by Clinical and Laboratory Standards Institute (CLSI)[30]. These compounds were tested for their antibacterial activities against Bacillus subtilis BS01, Staphyloccocus aureus ATCC 29213, Staphyloccocus aureus 745524, Bacillus thuringiensis BT01, and Enterococcus faecalis ATCC 29212 using a broth dilution method.

[2] = system: B. subtilis BS01; test: Antibacterial activity, broth dilution MIC; assay type: cell-based; conditions: Bacillus subtilis
Protocol: as §1

[3] = system: B. thuringiensis BT01; test: Antibacterial activity, broth dilution MIC; assay type: cell-based; conditions: Bacillus thuringiensis
Protocol: as §1

[4] = system: E. faecalis ATCC 29212; test: Antibacterial activity, broth dilution MIC; assay type: cell-based; conditions: Enterococcus faecalis
Protocol: as §1

[5] = system: Staphylococcus aureus ATCC 29213; test: Antibacterial activity, broth dilution MIC; assay type: cell-based
Protocol: as §1

[6] = system: MDA-MB-468 human triple negative breast adenocarcinoma cell line; test: Cytotoxic activity, MTT method; assay type: cell-based; conditions: MDA-MB-468, read-out: Cytotoxic activities IC50, MDA-MB-468
From the text: (§2) All data were obtained in triplicate and are presented as means.

[7] = system: HeLa human cervical carcinoma cell line; test: Cytotoxic activity, MTT method; assay type: cell-based; conditions: read-out: Cytotoxic activities IC50, HeLa
From the text: as §2

[8] = Cytotoxic activity, MTT method; assay type: cell-based; conditions: human
From the text: as §2

[9] = system: HepG2 human hepatocellular carcinoma cell line; test: Cytotoxic activity, MTT method; assay type: cell-based; conditions: HepG2, read-out: Cytotoxic activities IC50, HepG2
From the text: as §2

[10] = system: RKO human colorectal carcinoma cell line; test: Cytotoxic activity, MTT method; assay type: cell-based; conditions: read-out: Cytotoxic activities IC50, RKO
From the text: as §2

[11] = system: MCF-7 human breast adenocarcinoma cell line; test: Cytotoxic activity, MTT method; assay type: cell-based; conditions: MCF7, read-out: Cytotoxic activities IC50, MCF-7
From the text: as §2

[12] = system: A549 human lung cancer cell line; test: Cytotoxic activity, MTT method; assay type: cell-based; conditions: A549, read-out: Cytotoxic activities IC50, A549
From the text: as §2

[13] = system: MDA-MB-231 human triple negative breast adenocarcinoma cell line; test: Cytotoxic activity, MTT method; assay type: cell-based; conditions: MDA-MB-231, read-out: Cytotoxic activities IC50, MDA-MB-231
From the text: as §2

[14] = system: CytA; test: Enzyme kinetics of CytA (formation of deglycosylation products, anaerobic); assay type: biochemical, Streptomyces sp. SCSIO 1666; conditions: substrate of CytA; 0.5 μM CytA, 20 μM NADH, anaerobic
Protocol: Enzymatic reactions were carried out under anaerobic conditions in an anaerobic workstation (Don Whitley Scientific A45) containing a gas phase of N2/H2/CO2 (80:10: 10%, by vol.). ^1H, ^13C, and 2D (COSY, HMQC, HMBC and NOESY) NMR spectra were recorded at 25 °C with an Avance 700 MHz spectrometer instruments (Bruker). High-resolution mass spectra were obtained with a Maxis quadrupole-time-of-flight mass spectrometer (Bruker).
To validate the in vitro biochemical activities of CytA, we overexpressed and purified this enzyme as a soluble N-terminally His6-tagged protein from E. coli (Fig. 2a). Tris-Cl buffer was made O2 free by boiling, followed by cooling under N2 flow; NADH stock solution (dissolved in Tris-Cl), substrate stock solution (dissolved in DMSO), and enzyme solution (dissolved in Tris-Cl supplemented with 10% glycerin) were subjected to O2 eliminating process in the anaerobic workstations for at least two cycles (40 min for one cycle). CytA enzymatic activity was tested in 50 μL volume containing 50 mM Tris-Cl (pH 8.0), 25 μM substrate, 0.5 μM CytA, and 20 μM NADH, at 37 °C for 30 min. The reaction was quenched with the addition to 2 volumes MeOH. After centrifugation to remove protein, supernatants were analyzed with Agilent HPLC equipment using a Phenomenex Prodigy ODS column S5 (150 × 4.60 mm, 5 μ) and UV detection at 254 and 500 nm. Samples were eluted with a gradient elution of phase A containing 0.1% TFA in ddH2O and phase B containing 100% acetonitrile, at a flow rate of 1 mL/min.
Kinetic analyses of CytA with putative substrates 6–10, daunorubicin, doxorubicin, idarubicin, epirubicin and pirarubicin, involved a reaction volume of 20 μL consisting of 50 mM Tris-Cl (pH 8.0), 0.5 μM CytA, 20 μM NADH, […]
All assays were performed in triplicate and Km and Vmax values were calculated on the basis of curve fitting to the Michaelis-Menten equation: v = Vmax *[S]/(Km + [S]) (Supplementary Fig. 7).
For kinetics of CytA, Origin 9.0 (OriginLab Co.) was used to analyze on the basis of curve fitting to the Michaelis-Menten equation. Experiments were performed in triplicate independently. For antibacterial activity, experiments were performed in triplicate using 96-well plates.

[15] = Staphylococcus aureus 745524, triplicate, read-out: MIC values, SA2
[16] = B. subtilis BS01, triplicate, read-out: MIC values, BS
[17] = B. thuringiensis BT01, triplicate, read-out: MIC values, BT
[18] = ATCC29212, E. faecalis ATCC 29212, triplicate, read-out: MIC values, EF
[19] = ATCC29213, Staphylococcus aureus ATCC 29213, triplicate, read-out: MIC values, SA1
[20] = Staphylococcus aureus, 745524, read-out: MIC values, SA2
[21] = ATCC29212, read-out: MIC values, EF
[22] = Staphylococcus aureus, ATCC29213, read-out: MIC values, SA1
[23] = Huvec-12 normal cell line, read-out: Cytotoxic activities IC50, Huvec-12
[24] = L02 normal cell line, read-out: Cytotoxic activities IC50, L02

| Structure (SMILES) | MIC [1, 15] [µg/mL] | MIC [2, 16] [µg/mL] | MIC [3, 17] [µg/mL] | MIC [4, 18] [µg/mL] | MIC [5, 19] [µg/mL] | IC50 [6] [µM] | IC50 [7] [µM] | IC50 [9] [µM] | IC50 [10] [µM] | IC50 [11] [µM] | IC50 [12] [µM] | IC50 [13] [µM] | Km [14] [µM] | kcat [14] [s⁻¹] | also measured |
| --- | --- | --- | --- | --- | --- | --- | --- | --- | --- | --- | --- | --- | --- | --- | --- |
| CC1(C)S[C@@H]2[C@H](NC(=O)[C@H](N)c3ccccc3)C(=O)N2[C@H]1C(=O)O [Amp, Ampicillin, reference compound] | 8 (≈ 22.9 µM) | 4 (≈ 11.4 µM) | 4 (≈ 11.4 µM) | 2 (≈ 5.72 µM) | 4 (≈ 11.4 µM) |  |  |  |  |  |  |  |  |  |  |
| CC[C@@]1(O[C@H]2C[C@H](N(C)C)[C@H](O)[C@H](C)O2)CCc2c(O)c3c(c(O)c2[C@H]1O[C@H]1C[C@H](N(C)C)[C@H](O[C@H]2CC[C@H](O[C@H]4CC[C@H](O)[C@H](C)O4)[C@H](C)O2)[C@H](C)O1)C(=O)c1cccc(O)c1C3=O [Compound 1, cytorhodin X] |  |  |  |  |  | 21.3 | 2.04 | 3.04 | 11.2 | 12.7 | 3.4 | 18.7 |  |  | MIC [1, 20]: 2 µg/mL (≈ 2.19 µM); MIC ([2]; BS01, read-out: MIC values, BS): 2 µg/mL (≈ 2.19 µM); MIC ([3]; BT01, read-out: MIC values, BT): 4 µg/mL (≈ 4.38 µM); MIC [4, 21]: 2 µg/mL (≈ 2.19 µM); MIC [5, 22]: 2 µg/mL (≈ 2.19 µM); IC50 [8, 23]: 4.23 µM; IC50 [8, 24]: 3.5 µM |
| CC[C@@]1(O[C@H]2C[C@H](N(C)C)[C@H](O)[C@H](C)O2)CCc2c(O)c3c(c(O)c2[C@H]1O[C@H]1C[C@H](N(C)C)[C@H](O[C@H]2C[C@H](O)[C@H](O[C@H]4CC[C@H](O)[C@H](C)O4)[C@H](C)O2)[C@H](C)O1)C(=O)c1cccc(O)c1C3=O [Compound 2, cytorhodin Y] | 1 (≈ 1.08 µM) | 1 (≈ 1.08 µM) | 4 (≈ 4.31 µM) | 4 (≈ 4.31 µM) | 2 (≈ 2.15 µM) | 16.4 | 3.25 | 6.17 | 11.8 | 9.89 | 7.25 | 17.5 |  |  | IC50 [8, 23]: 4.71 µM; IC50 [8, 24]: 4.46 µM |
| CC[C@@]1(O)CCc2c(O)c3c(c(O)c2[C@H]1O[C@H]1C[C@H](N(C)C)[C@H](O[C@H]2CC[C@H](O[C@H]4CC[C@H](O)[C@H](C)O4)[C@H](C)O2)[C@H](C)O1)C(=O)c1cccc(O)c1C3=O [Compound 3, cosmomycin A] | 0.125 (≈ 0.165 µM) | 0.5 (≈ 0.661 µM) | 0.25 (≈ 0.331 µM) | 0.06 (≈ 0.0794 µM) | 0.25 (≈ 0.331 µM) | 0.81 | 0.15 | 0.023 | 0.083 | 0.82 | 0.032 | 1.36 |  |  | IC50 [8, 23]: 0.31 µM; IC50 [8, 24]: 0.42 µM |
| CC[C@@]1(O)CCc2c(O)c3c(c(O)c2C1)C(=O)c1cccc(O)c1C3=O [Compound 12] | > 32 | > 32 | > 32 | > 32 | > 32 |  |  |  |  |  |  |  |  |  |  |
| CC[C@@]1(O)CCc2c(O)c3c(c(O)c2[C@H]1O)C(=O)c1cccc(O)c1C3=O [Compound 13] | > 32 | > 32 | > 32 | > 32 | > 32 |  |  |  |  |  |  |  |  |  |  |
| COc1cccc2c1C(=O)c1c(O)c3c(c(O)c1C2=O)C[C@@](O)(C(C)=O)C[C@@H]3O[C@H]1C[C@H](N)[C@H](O)[C@H](C)O1 [Compound 22, daunorubicin, reference compound] |  |  |  |  |  |  |  |  |  |  |  |  | 36.3 | 0.00967 |  |
| COc1cccc2c1C(=O)c1c(O)c3c(c(O)c1C2=O)C[C@@](O)(C(=O)CO)C[C@@H]3O[C@H]1C[C@H](N)[C@H](O)[C@H](C)O1 [Compound 23, doxorubicin, reference compound] |  |  |  |  |  | 2.11 | 0.83 | 0.41 | 1.45 | 0.9 | 2.31 | 16.9 | 31 | 0.0102 | IC50 ([8]; Huvec-12 normal umbilical vein endothelial cells, Huvec-12 normal cell line, read-out: Cytotoxic activities IC50, Huvec-12): 6.31 µM; IC50 ([8]; L02 normal hepatic cells, L02 normal cell line, read-out: Cytotoxic activities IC50, L02): 7.67 µM |
| CC(=O)[C@]1(O)Cc2c(O)c3c(c(O)c2[C@@H](O[C@H]2C[C@H](N)[C@H](O)[C@H](C)O2)C1)C(=O)c1ccccc1C3=O [Compound 24, idarubicin, reference compound] |  |  |  |  |  |  |  |  |  |  |  |  | 28.5 | 0.00733 |  |
| COc1cccc2c1C(=O)c1c(O)c3c(c(O)c1C2=O)C[C@@](O)(C(=O)CO)C[C@@H]3O[C@H]1C[C@H](N)[C@@H](O)[C@H](C)O1 [Compound 25, epirubicin, reference compound] |  |  |  |  |  |  |  |  |  |  |  |  | 38.6 | 0.00883 |  |
| COc1cccc2c1C(=O)c1c(O)c3c(c(O)c1C2=O)C[C@@](O)(C(=O)CO)C[C@@H]3O[C@H]1C[C@H](N)[C@H](O[C@@H]2CCCCO2)[C@H](C)O1 [Compound 26, pirarubicin, reference compound] |  |  |  |  |  |  |  |  |  |  |  |  | 49.3 | 0.0123 |  |
| CN[C@H](CC(C)C)C(=O)N[C@H]1C(=O)N[C@@H](CC(N)=O)C(=O)N[C@H]2C(=O)N[C@H]3C(=O)N[C@H](C(=O)N[C@H](C(=O)O)c4cc(O)cc(O)c4-c4cc3ccc4O)[C@H](O)c3ccc(c(Cl)c3)Oc3cc2cc(c3O[C@@H]2O[C@H](CO)[C@@H](O)[C@H](O)[C@H]2O[C@H]2C[C@](C)(N)[C@H](O)[C@H](C)O2)Oc2ccc(cc2Cl)[C@H]1O [Van, Vancomycin, reference compound] |  |  |  |  |  |  |  |  |  |  |  |  |  |  | MIC [1, 20]: 1 µg/mL (≈ 0.69 µM); MIC ([2]; BS01, read-out: MIC values, BS): 0.5 µg/mL (≈ 0.345 µM); MIC ([3]; BT01, read-out: MIC values, BT): 0.5 µg/mL (≈ 0.345 µM); MIC [4, 21]: 0.25 µg/mL (≈ 0.173 µM); MIC [5, 22]: 0.5 µg/mL (≈ 0.345 µM) |
